Experimental data published in US20130157954A1, “METHODS FOR TREATMENT OR PROPHYLAXIS OF KIDNEY OR LIVER DYSFUNCTION” (NPS PHARMACEUTICALS, INC., priority 2010, published 2013).

Test: Example 1: liver biomarkers (total bilirubin, ALT, AST, ALP) in short bowel syndrome patients, every four weeks for 24 weeks; also sorted by >5% change from baseline
Format: in vivo, Human
Design: AST (SGOT) Change from Baseline Median / ALT (SGPT) Median / TOTAL BILIRUBIN Median / TOTAL BILIRUBIN Change from Baseline Median / ALT (SGPT) Change from Baseline Median / AST (SGOT) Median: unit not given here
Details: 0.05 mg/kg/day
Description: Human patients with short bowel syndrome were divided into three groups: a control group (16 total individuals) to receive placebo, an experimental group (35 total individuals) to receive teduglutide at 0.05 mg/kg/day throughout the study, and an experimental group (32 total individuals) to receive teduglutide at 0.1 mg/kg/day throughout the study. Patients were treated by subcutaneous injection of placebo or the appropriate dose of teduglutide. As individuals with short bowel syndrome are likely to experience associated liver and kidney disease, known biomarkers of liver and kidney function were monitored every four weeks, for 24 weeks. The liver biomarkers tested included total bilirubin, ALT and AST and ALP. The kidney biomarkers tested included urea nitrogen, creatinine and GFR. Before administration of placebo or teduglutide, diagnostic biomarker levels were tested to establish a baseline for each individual.
To visualize the effect of GLP-2 on the levels of the diagnostic biomarkers, the average change from baseline was calculated for the placebo and teduglutide treated groups for each visit after a baseline was established. The average change from baseline of each group is depicted in FIGS. 1-7. The numerical figures for each diagnostic biomarker at each time point are depicted in Table 1.
The efficacy of teduglutide in treating liver dysfunction was further tested by sorting the data into two groups: individuals with abnormal baseline values of liver diagnostic biomarkers; and individuals with normal baseline values of liver diagnostic biomarkers. The mean diagnostic biomarker change from baseline for these two groups is shown for ALT (FIGS. 5 and 6) and AST (FIGS. 7 and 8). […] These changes were significant when compared to baseline levels for the group, and when compared to placebo (see FIGS. 5 and 7).
The raw data for this sorting is reproduced in Table 2 below.

For CC[C@H](C)[C@H](NC(=O)[C@H](Cc1ccccc1)NC(=O)[C@H](CC(=O)O)NC(=O)[C@H](CCCNC(=N)N)NC(=O)[C@H](C)NC(=O)[C@H](C)NC(=O)[C@H](CC(C)C)NC(=O)[C@H](CC(N)=O)NC(=O)[C@H](CC(=O)O)NC(=O)[C@H](CC(C)C)NC(=O)[C@@H](NC(=O)[C@@H](NC(=O)[C@H](CC(N)=O)NC(=O)[C@H](CCSC)NC(=O)[C@H](CCC(=O)O)NC(=O)[C@H](CC(=O)O)NC(=O)[C@H](CO)NC(=O)[C@H](Cc1ccccc1)NC(=O)[C@H](CO)NC(=O)CNC(=O)[C@H](CC(=O)O)NC(=O)CNC(=O)[C@@H](N)Cc1c[nH]cn1)[C@@H](C)O)[C@@H](C)CC)C(=O)N[C@@H](CC(N)=O)C(=O)N[C@@H](Cc1c[nH]c2ccccc12)C(=O)N[C@@H](CC(C)C)C(=O)N[C@H](C(=O)N[C@@H](CCC(N)=O)C(=O)N[C@H](C(=O)N[C@@H](CCCCN)C(=O)N[C@H](C(=O)N[C@H](C(=O)N[C@@H](CC(=O)O)C(=O)O)[C@@H](C)O)[C@@H](C)CC)[C@@H](C)O)[C@@H](C)CC [teduglutide], the “ALKALINE PHOSPHATASE Change from Baseline Median” value (DW4) was −16.0, the “ALT (SGPT) Change from Baseline Median” value (DW4) was −5.0 and the “ALT (SGPT) Median” value (DW4) was 27.0. For the same compound, the “AST (SGOT) Change from Baseline Median” value (DW4) was −4.0, the “AST (SGOT) Median” value (DW4) was 27.0 and the “TOTAL BILIRUBIN Change from Baseline Median” value (DW4) was 0.0. The “TOTAL BILIRUBIN Median” value (DW4) was 7.0, the “ALKALINE PHOSPHATASE Change from Baseline Median” value (DW8) was −20.0 and the “ALT (SGPT) Change from Baseline Median” value (DW8) was −4.0. For the same compound, the “AST (SGOT) Change from Baseline Median” value (DW8) was −3.0, the “AST (SGOT) Median” value (DW8) was 28.0 and the “TOTAL BILIRUBIN Change from Baseline Median” value (DW8) was −1.0. The “TOTAL BILIRUBIN Median” value (DW8) was 8.0, the “ALKALINE PHOSPHATASE Change from Baseline Median” value (DW12) was −24.0 and the “ALT (SGPT) Change from Baseline Median” value (DW12) was −10.0. For the same compound, the “ALT (SGPT) Median” value (DW12) was 26.0, the “AST (SGOT) Change from Baseline Median” value (DW12) was −8.0 and the “TOTAL BILIRUBIN Change from Baseline Median” value (DW12) was −1.0. For the same compound, the “TOTAL BILIRUBIN Median” value (DW12) was 7.0, the “ALT (SGPT) Change from Baseline Median” value (DW16) was −2.5 and the “ALT (SGPT) Median” value (DW16) was 28.0. For the same compound, the “AST (SGOT) Change from Baseline Median” value (DW16) was −1.5, the “AST (SGOT) Median” value (DW16) was 25.0 and the “TOTAL BILIRUBIN Change from Baseline Median” value (DW16) was −1.0. The “TOTAL BILIRUBIN Median” value (DW16) was 7.0, the “ALKALINE PHOSPHATASE Change from Baseline Median” value (DW20) was −25.0 and the “ALT (SGPT) Change from Baseline Median” value (DW20) was −5.0. For the same compound, the “ALT (SGPT) Median” value (DW20) was 26.0, the “AST (SGOT) Change from Baseline Median” value (DW20) was −4.0 and the “AST (SGOT) Median” value (DW20) was 25.0. For the same compound, the “TOTAL BILIRUBIN Change from Baseline Median” value (DW20) was 0.0, the “TOTAL BILIRUBIN Median” value (DW20) was 9.0 and the “ALKALINE PHOSPHATASE Change from Baseline Median” value (DW 24) was −29.0. The “ALT (SGPT) Change from Baseline Median” value (DW 24) was −5.0, the “ALT (SGPT) Median” value (DW 24) was 20.0 and the “AST (SGOT) Change from Baseline Median” value (DW 24) was −4.5. The “AST (SGOT) Median” value (DW 24) was 25.0, the “TOTAL BILIRUBIN Change from Baseline Median” value (DW 24) was 0.0 and the “TOTAL BILIRUBIN Median” value (DW 24) was 8.0. The “ALKALINE PHOSPHATASE change from baseline <−5%, number of patients” value (week 4) was 21, the “ALKALINE PHOSPHATASE change from baseline <−5%, percent of patients” value (week 4) was “(60.0%)” and the “ALKALINE PHOSPHATASE change from baseline >5%, number of patients” value (week 4) was 3. The “ALKALINE PHOSPHATASE change from baseline >5%, percent of patients” value (week 4) was “(8.6%)”, the “ALKALINE PHOSPHATASE change from baseline −5% <= and <=5%, number of patients” value (week 4) was 6 and the “ALKALINE PHOSPHATASE change from baseline −5% <= and <=5%, percent of patients” value (week 4) was “(17.1%)”. For the same compound, the “ALT (SGPT) change from baseline <−5%, number of patients” value (week 4) was 22, the “ALT (SGPT) change from baseline <−5%, percent of patients” value (week 4) was “(62.9%)” and the “ALT (SGPT) change from baseline >5%, number of patients” value (week 4) was 8. For the same compound, the “ALT (SGPT) change from baseline >5%, percent of patients” value (week 4) was “(22.9%)”, the “ALT (SGPT) change from baseline −5% <= and <=5%, number of patients” value (week 4) was 0 and the “ALT (SGPT) change from baseline −5% <= and <=5%, percent of patients” value (week 4) was “(0.0%)”. The “AST (SGOT) change from baseline <−5%, number of patients” value (week 4) was 21, the “AST (SGOT) change from baseline <−5%, percent of patients” value (week 4) was “(60.0%)” and the “AST (SGOT) change from baseline >5%, number of patients” value (week 4) was 5. For the same compound, the “AST (SGOT) change from baseline >5%, percent of patients” value (week 4) was “(14.3%)”, the “AST (SGOT) change from baseline −5% <= and <=5%, number of patients” value (week 4) was 2 and the “AST (SGOT) change from baseline −5% <= and <=5%, percent of patients” value (week 4) was “(5.7%)”. The “TOTAL BILIRUBIN change from baseline <−5%, number of patients” value (week 4) was 12, the “TOTAL BILIRUBIN change from baseline <−5%, percent of patients” value (week 4) was “(34.3%)” and the “TOTAL BILIRUBIN change from baseline >5%, number of patients” value (week 4) was 8. For the same compound, the “TOTAL BILIRUBIN change from baseline >5%, percent of patients” value (week 4) was “(22.9%)”, the “TOTAL BILIRUBIN change from baseline −5% <= and <=5%, number of patients” value (week 4) was 6 and the “TOTAL BILIRUBIN change from baseline −5% <= and <=5%, percent of patients” value (week 4) was “(17.1%)”. For the same compound, the “ALKALINE PHOSPHATASE change from baseline <−5%, number of patients” value (week 8) was 21, the “ALKALINE PHOSPHATASE change from baseline <−5%, percent of patients” value (week 8) was “(60.0%)” and the “ALKALINE PHOSPHATASE change from baseline >5%, number of patients” value (week 8) was 6. For the same compound, the “ALKALINE PHOSPHATASE change from baseline >5%, percent of patients” value (week 8) was “(17.1%)”, the “ALKALINE PHOSPHATASE change from baseline −5% <= and <=5%, number of patients” value (week 8) was 2 and the “ALKALINE PHOSPHATASE change from baseline −5% <= and <=5%, percent of patients” value (week 8) was “(5.7%)”. For the same compound, the “ALT (SGPT) change from baseline <−5%, number of patients” value (week 8) was 16, the “ALT (SGPT) change from baseline <−5%, percent of patients” value (week 8) was “(45.7%)” and the “ALT (SGPT) change from baseline >5%, number of patients” value (week 8) was 9. The “ALT (SGPT) change from baseline >5%, percent of patients” value (week 8) was “(25.7%)”, the “ALT (SGPT) change from baseline −5% <= and <=5%, number of patients” value (week 8) was 4 and the “ALT (SGPT) change from baseline −5% <= and <=5%, percent of patients” value (week 8) was “(11.4%)”. The “AST (SGOT) change from baseline <−5%, number of patients” value (week 8) was 16, the “AST (SGOT) change from baseline <−5%, percent of patients” value (week 8) was “(45.7%)” and the “AST (SGOT) change from baseline >5%, number of patients” value (week 8) was 9. The “AST (SGOT) change from baseline >5%, percent of patients” value (week 8) was “(25.7%)”, the “AST (SGOT) change from baseline −5% <= and <=5%, number of patients” value (week 8) was 4 and the “AST (SGOT) change from baseline −5% <= and <=5%, percent of patients” value (week 8) was “(11.4%)”. For the same compound, the “TOTAL BILIRUBIN change from baseline <−5%, number of patients” value (week 8) was 13, the “TOTAL BILIRUBIN change from baseline <−5%, percent of patients” value (week 8) was “(37.1%)” and the “TOTAL BILIRUBIN change from baseline >5%, number of patients” value (week 8) was 8. For the same compound, the “TOTAL BILIRUBIN change from baseline >5%, percent of patients” value (week 8) was “(22.9%)”, the “TOTAL BILIRUBIN change from baseline −5% <= and <=5%, number of patients” value (week 8) was 4 and the “TOTAL BILIRUBIN change from baseline −5% <= and <=5%, percent of patients” value (week 8) was “(11.4%)”. The “ALKALINE PHOSPHATASE change from baseline <−5%, number of patients” value (week 12) was 23, the “ALKALINE PHOSPHATASE change from baseline <−5%, percent of patients” value (week 12) was “(65.7%)” and the “ALKALINE PHOSPHATASE change from baseline >5%, number of patients” value (week 12) was 2. The “ALKALINE PHOSPHATASE change from baseline >5%, percent of patients” value (week 12) was “(5.7%)” and the “ALKALINE PHOSPHATASE change from baseline −5% <= and <=5%, number of patients” value (week 12) was 2.
